Experimental data as given in patent US20250108036A1, “COMPOSITIONS FOR REMOVING SENESCENT CELLS AND USES THEREOF” (LIFECEUTIX CO., LTD., priority 2021, published 2025).

Assays:
[1] = chlorhexidine gluconate-induced peritoneal fibrosis in mice (Example 6-2); type: in vivo, C57BL6J mice; settings: 0.1% CHG 10 ml/kg i.p. every 2 days for 20 days; LX-112 70 mg/kg i.p. daily from day 9
Method: After 8-week-old male C57BL6J mice (purchased from KRIBB Laboratory Animal Resource Center) were adapted to the experimental environment for 1 week, the mice were randomized into an experimental group and a control group. To induce peritoneal fibrosis, 0.1% chlorhexidine gluconate (CHG, purchased from Sigma) was dissolved in 15% ethanol phosphate buffer solution and administered intraperitoneally at a concentration of 10 ml/kg every 2 days for 20 days. From day 9, LX-112 was mixed with 0.5% CMC-Na solution (purchased from Sigma) and administered intraperitoneally at a concentration of 70 mg/kg every day. The control group (−) was administered only the solution in the same volume. On the 20th day, paraffin sections of peritoneal tissue prepared by fixation in 4% paraformaldehyde solution were stained with H/E (Hematoxylin/Eosin) and trichrome, and the thickness of the peritoneal mesothelial cell layer was measured under a light microscope.

[2] = system: p16, p21; test: p16 and p21 mRNA qRT-PCR in obesity-aged (DIO) mice (Example 9-2); type: in vivo, C57BL6J mice; settings: LX-112 70 mg/kg oral daily 21 days, DIO without LX = 100%
Method: 15-week-old male C57BL6J mice (purchased from Jackson Laboratories), whose obesity was induced by a high-fat diet, were adapted to the experimental environment for one week, and then the mice were randomized into an experimental group and a control group. LX-112 was mixed with 0.5% CMC-Na solution (purchased from Sigma) and administered orally at a concentration of 70 mg/kg daily for 21 days. The control group was administered only the solution in the same volume. After drug administration was completed, the method described in each Example below was performed. Mice were sacrificed and the weight of adipose tissue in each area was measured.
Mice were sacrificed in the same manner as in Example 7-2, RNA was extracted from the organ tissue of each region, and qRT-PCR (quantitative real-time PCR) was performed and analyzed using the synthesized cDNA. […] Table 54 calculates the mRNA amounts of p16 and p21 after aging induced by obesity as 100% and compares them with the mRNA amounts of p16 and p21 after treatment with LX-112.

[3] = skin aging (dermal thickness, collagen mRNA) in naturally aged mice (Example 7-9); type: in vivo, C57BL6J mice
Method: (§1) After 22-month-old female C57BL6J mice (purchased from KRIBB Laboratory Animal Resource Center) were adapted to the experimental environment for one week, the aged mice were randomized into an experimental group and a control group. 8-week-old mice that were not aged were used as controls. LX-112 was mixed with 0.5% CMC-Na solution (purchased from Sigma) and administered orally at a concentration of 70 mg/kg daily for 21 days. The control group was administered only the solution in the same volume. After drug administration was completed, the method described in each Example below was performed.
Frozen sections of skin tissue were stained with H/E (Hematoxylin/Eosin), and the thickness of the dermis was observed under an optical microscope. Additionally, the mRNA amount of collagen (COL1A1) was measured by qRT-PCR as described in Example 7-2.

[4] = system: SA-β-gal; test: SA-β-gal staining of tissue sections of naturally aged mice (Example 7-3); type: in vivo, C57BL6J mice; settings: stained area, LX-112 70 mg/kg oral daily 21 days
Method: as §1
The mouse was sacrificed, tissue sections were prepared from the organ tissues of each region, and stained for an aging marker (SA-β-gal) in the same manner as Example 1-1. Specifically, fat was removed from the tissues of each area collected from mice and fixed in 4% formalin at room temperature for more than 24 hours. For cryopreservation, the cells were placed in 30% sucrose for more than 8 hours and then rapidly frozen in cryoprotectant OCT medium for cryosectioning. The rapidly frozen tissue was commissioned to Histoa, a company specializing in histopathology services, and frozen sections were produced. The prepared frozen tissue sections were cut to a thickness of 8 μm, sectioned on a slide cover, dried at room temperature for 30 minutes, and then stored at −80° C. until use. After staining the aging marker (SA-β-gal), the images were taken through an optical microscope, and the area of the stained area was calculated using the Image J program and quantified by normalizing it based on the total area. […] FIG. 2 is a photo result of staining of adipose tissue.

[5] = system: A549; test: CellTiter-Glo cell viability of senescent A549 cancer cells (Example 12, Table 67); type: cell-based, human; settings: Homo sapiens, A549, doxorubicin-induced senescent A549 cancer cells, 1.1 μM test compound, CellTiter-Glo; read-out: Survival (%)

## O=c1c2ccccc2[se]n1CCn1[se]c2ccccc2c1=O [LX-112, 1,2-[bis(1,2-benzisoselenazolone-3(2H)-ketone)]ethane]
[1]
  Submesothelial Thickness (μm): 43.1 (±10.4) μm
[2]
  p16 mRNA (%) Liver: 71.3%
  p16 mRNA (%) Lung: 81%
  p16 mRNA (%) Muscle: 77.8%
  p16 mRNA (%) Skin: 79.1%
  p16 mRNA (%) asWAT: 84.1%
  p16 mRNA (%) eWAT: 61.2%
  p16 mRNA (%) iBAT: 89.2%
  p16 mRNA (%) iWAT: 79.1%
  p21 mRNA (%) Liver: 62.9%
  p21 mRNA (%) Lung: 79.3%
  p21 mRNA (%) Muscle: 73.2%
  p21 mRNA (%) Skin: 78.1%
  p21 mRNA (%) asWAT: 82.1%
  p21 mRNA (%) eWAT: 67.2%
  p21 mRNA (%) iBAT: 70%
  p21 mRNA (%) iWAT: 71.2%
[3]; COL1A1, skin, LX-112, aged untreated = 1
  Collagen mRNA (Fold): 2.3 (±0.4) Fold
[3]; LX-112 70 mg/kg oral daily 21 days
  Dermal Thickness (μm): 265 (±17.2) μm
[4]
  SA-β-gal (%) Kidney: 55 (±17) %
  SA-β-gal (%) Liver: 58 (±6) %
  SA-β-gal (%) Lung: 67 (±6) %
  SA-β-gal (%) Skin: 68 (±9) %
  SA-β-gal (%) eWAT: 38 (±7) %

## COC(=O)c1ccc([C@H]2c3[nH]c4ccccc4c3C[C@H](C(=O)OC)N2C(=O)CCl)cc1 [LX-405]
[5]
  viability at 1.1 µM: 23.8%
